biological target: T1, MBP-HTT(1-89)Q46-His(6×) (“Exon1-Q46”) protein aggregates (Homo sapiens, UniProt P42858, INS38QQQQQQQQQQQQQQQQQQQQQQQQQ); assay: Exon1-Q46 Radioligand Binding Assay; conditions: not given
T1 construct: MBP-HTT(1-89)Q46-His(6×); His(6×) (C); made in house
Method: Exon1-Q46 Radioligand Binding Assay
For experiments 30 μM MBP-Exon1-Q46 was incubated with 150 μg/mL thrombin in assay buffer (150 mM NaCl, 50 mM Tris pH 8.0) and 2 mM CaCl2 for 16 hours at 37° C. Aggregated Exon1-Q46 was pelleted by centrifugation for 5 minutes at 13,000 rpm in a bench top centrifuge and re-dissolved in the same volume of assay buffer. […] For the RBA, Q46 protein aggregates and test compounds were pre-incubated in assay buffer for 20 minutes at room temperature, in 100 μL/well in a 96-well plate (pp, round bottom). Then, ligand was added in 50 μL/well and incubated for 60 minutes at 37° C. Final assay concentrations were […] test compound, 1 μM Exon1-Q46 protein (equivalent monomer concentration) and 0.3 nM ligand [^3H3-methyl]-5-((5-methoxypyridin-2-yl)methoxy)-2-(pyrazin-2-yl)benzo[d]oxazole. Samples were transferred onto GF/B filter plates and washed 2× with 200 μL PBS using a Filtermate Harvester. After drying filter plates for 1 hour at 55° C., the back of the plates were sealed with foil and 30 μL/well scintillation fluid (Packard MicroScint 40) added, incubated for 15 minutes in the dark and counted in a MicroBeta reader. […] IC50 values were determined with a sigmoidal inhibition model with four variables (top, bottom, slope, IC50) in a global fit using the normalized replicate data.

T1 sequence (P42858 with tags, fused parts or gaps with the stated changes limits assumed): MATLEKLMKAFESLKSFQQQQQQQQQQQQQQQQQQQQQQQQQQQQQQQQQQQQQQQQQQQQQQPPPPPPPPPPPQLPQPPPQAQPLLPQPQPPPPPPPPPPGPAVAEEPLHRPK

| SMILES | IC50 [nM] |
| --- | --- |
| Cn1ncc2c(=O)n(CCC(=O)Nc3ccc(F)cc3F)c3c[c]([Sn]([CH3])([CH3])[CH3])ccc3c21 [Example 26-1, N-(2,4-difluorophenyl)-3-[1-methyl-4-oxo-7-(trimethylstannyl)-1H,4H,5H-pyrazolo [4,3-c]quinolin-5-yl]propanamide] | < 100 |
| CCC[CH2][Sn]([CH2]CCC)([CH2]CCC)[c]1ccc(NC(=O)CCn2c(=O)c3cnn(C)c3c3ccc(F)cc32)c(F)c1 [Example 24-1, 3-{7-Fluoro-1-methyl-4-oxo-1H,4H,5H-pyrazolo[4,3-c]quinolin-5-yl}-N-[2-fluoro-4-(tributylstannyl)phenyl]propanamide] | < 100 |

same assay, conditions: displacement of 0.3 nM [3H3-methyl]-5-((5-methoxypyridin-2-yl)methoxy)-2-(pyrazin-2-yl)benzo[d]oxazole from 1 μM aggregated Exon1-Q46, 60 minutes at 37° C.; read-out: Potency Range (IC50)

| IC50 [nM] | SMILES |
| --- | --- |
| < 100 | O=C(CCn1c(=O)c2cccn2c2ccc(F)cc21)NCCc1ccccc1 [Example 3-30] |
| < 100 | O=C(CCn1c(=O)c2ccnn2c2ccc(F)cc21)Nc1ccc(F)cn1 [Example 8-12] |
| < 100 | Cn1ncc2c(=O)n(CCC(=O)Nc3cccc(Cl)c3F)c3cc(F)ccc3c21 [Example 9-19] |
| < 100 | O=C(CCCn1c(=O)c2cccn2c2ccc(F)cc21)Nc1ccccc1 [Example 1-9] |
| < 100 | O=C(CCn1c(=O)c2cccn2c2ccc(F)cc21)Nc1ccc(O)cn1 [Example 10-1, 3-{7-Fluoro-4-oxo-4H,5H-pyrrolo[1,2-a]quinoxalin-5-yl}-N-(5-hydroxypyridin-2-yl)propanamide] |
| < 100 | O=C(CCn1c(=O)c2cccn2c2ccc(F)cc21)NC1CCCC1 [Example 3-37] |
| < 100 | COc1ccc(C(=O)NCCn2c(=O)c3cccn3c3ccc(F)cc32)nc1 [Example 14-2] |
| < 100 | CC1CC(C)CN(C(=O)CCCn2c(=O)c3cccn3c3ccccc32)C1 (stereo not shown) [Example 29-2] |
| < 100 | COC1CCC(NC(=O)CCn2c(=O)c3cccn3c3ccc(F)cc32)CC1 (stereo not shown) [Example 3-29] |
| < 100 | C[C@@H]1CN(C(=O)CCCn2c(=O)c3cccn3c3ccc(F)cc32)C[C@H](C)O1 [Example 1-5] |
| 100 to 500 | COc1ccnc(NC(=O)CCCn2c(=O)c3nccn3c3ccc(F)cc32)c1 [Example 5-13] |
| < 100 | COc1ccc(NC(=O)CCn2c(=O)c3cc(C)cn3c3ccc(F)cc32)nc1 [Example 3-67] |
| < 100 | Cc1ccc(NC(=O)CCn2c(=O)c3cccn3c3ccc(F)cc32)nc1 [Example 3-24] |
| 100 to 500 | CN1CCN(C(=O)CCCn2c(=O)c3cccn3c3ccc(F)cc32)CC1 [Example 1-29] |
| < 100 | COc1ccc(C(=O)NCCn2c(=O)c3cccn3c3ccccc32)nc1 [Example 14-1, 5-Methoxy-N-(2-{4-oxo-4H,5H-pyrrolo[1,2-a]quinoxalin-5-yl}ethyl)pyridine-2-carboxamide] |
| < 100 | Cc1ccc(NC(=O)CCCn2c(=O)c3cccn3c3ccccc32)cc1 [Example 5-1] |
| < 100 | O=C(Cn1c(=O)c2cccn2c2ccc(F)cc21)N1CCCCC1 [Example 29-3] |
| < 100 | C[C@@H]1CN(C(=O)CCCn2c(=O)c3cccn3c3ccc(F)cc32)C[C@H]1C [Example 1-48] |
| < 100 | Cc1nn(C)c2c1c(=O)n(CCC(=O)Nc1ccccc1F)c1cc(F)ccc21 [Example 9-27] |
| < 100 | COc1ccnc(NC(=O)CCCn2c(=O)c3cccn3c3ccc(OC)cc32)c1 [Example 5-10] |
| < 100 | Cn1ncc2c(=O)n(CCC(=O)Nc3ccc(F)cc3)c3cc(F)ccc3c21 [Example 9-29] |
| < 100 | Cn1ncc2c(=O)n(CCC(=O)Nc3cccc(F)c3F)c3cc(F)ccc3c21 [Example 9-13] |
| < 100 | [2H]C([2H])([2H])n1ncc2c(=O)n(CCC(=O)Nc3ccc(F)cc3F)c3cc(F)ccc3c21 [Example 19-3] |

| IC50 [nM] | SMILES |
| --- | --- |
| < 100 | O=C(CCCn1c(=O)c2cccn2c2ccc(F)cc21)NC1CCC(C(F)(F)F)CC1 (stereo not shown) [Example 1-39] |
| < 100 | COc1ccc(NC(=O)CCCn2c(=O)c3cccn3c3ccc(F)cc32)cc1 [Example 1-12] |
| < 100 | O=C(CCn1c(=O)c2cccn2c2ccc(F)cc21)N1CCCc2ccccc21 [Example 3-47] |
| < 100 | COc1cncc(NC(=O)CCn2c(=O)c3cccn3c3ccc(F)cc32)c1 [Example 3-11] |
| 100 to 500 | CNC(=O)CCCn1c(=O)c2cccn2c2ccc(F)cc21 [Example 1-33] |
| < 100 | COc1ccncc1NC(=O)CCn1c(=O)c2cccn2c2ccc(F)cc21 [Example 3-10] |
| < 100 | Cc1ccnc(NC(=O)CCn2c(=O)c3ccnn3c3ccc(F)cc32)c1 [Example 8-11] |
| < 100 | CC1CCC(N(C)C(=O)CCCn2c(=O)c3cccn3c3ccc(F)cc32)CC1 (stereo not shown) [Example 1-46] |
| < 100 | O=C(CCn1c(=O)c2cccn2c2ccc(F)cc21)N1CCc2ccccc21 [Example 3-46] |
| < 100 | C[C@@H]1CN(C(=O)CCCn2c(=O)c3cccn3c3ccc(F)cc32)C[C@@H]1C [Example 1-47] |
| < 100 | O=C(CCn1c(=O)c2ccnn2c2ccc(F)cc21)Nc1ccncc1F [Example 8-7] |
| < 100 | COc1ccc(N(C)C(=O)CCCn2c(=O)c3cccn3c3ccc(F)cc32)cc1 [Example 1-23] |
| < 100 | O=C(CCn1c(=O)c2cccn2c2ccc(F)cc21)N1CCC(C(F)(F)F)CC1 [Example 3-42] |
| < 100 | O=C(CCn1c(=O)c2cccn2c2ccc(F)cc21)Nc1cccc(Cl)c1 [Example 3-25] |
| < 100 | [2H]C([2H])([2H])n1cc2c(=O)n(CCC(=O)Nc3ccc(F)cc3F)c3cc(F)ccc3c2n1 [Example 19-4] |
| < 100 | O=C(CCCn1c(=O)c2cccn2c2ccc(F)cc21)N1CCCC(C(F)(F)F)C1 (stereo not shown) [Example 1-45] |
| < 100 | COc1cccc(NC(=O)CCn2c(=O)c3cccn3c3ccc(F)cc32)c1 [Example 3-20] |
| < 100 | COc1ccncc1NC(=O)CCn1c(=O)c2cnn(C)c2c2ccc(F)cc21 [Example 9-6] |
| < 100 | Cn1ncc2c(=O)n(CCC(=O)Nc3cc(F)ccc3F)c3cc(F)ccc3c21 [Example 9-21] |
| < 100 | CCNC(=O)CCn1c(=O)c2cccn2c2ccc(F)cc21 [Example 3-38] |
| < 100 | COc1ccc(NC(=O)CCCn2c(=O)c3cccn3c3ccncc32)cc1 [Example 2-2] |
| < 100 | COc1cccc(NC(=O)CCCn2c(=O)c3cccn3c3ccncc32)c1 [Example 2-3] |
| < 100 | Cc1cccc(NC(=O)CCn2c(=O)c3ccnn3c3ccc(F)cc32)n1 [Example 8-9] |

| IC50 [nM] | SMILES |
| --- | --- |
| < 100 | O=C(CCn1c(=O)c2cccn2c2ccc(F)cc21)N1CCCC1 [Example 3-43] |
| < 100 | COc1ccc(NC(=O)CCCn2c(=O)c3cccn3c3ccc(F)cc32)nc1 [Example 1-43] |
| < 100 | C[C@H]1C[C@H](C)CN(C(=O)CCCn2c(=O)c3cccn3c3ccc(F)cc32)C1 [Example 1-3] |
| < 100 | Cn1c2c(ccc1=O)CN(C(=O)CCn1c(=O)c3cccn3c3ccc(F)cc31)CC2 [Example 3-49] |
| < 100 | O=C(CCn1c(=O)c2ccnn2c2ccc(F)cc21)Nc1ccccc1F [Example 8-2] |
| < 100 | O=C(CCCn1c(=O)c2cccn2c2ccc(F)cc21)NCCc1ccccc1 [Example 1-20] |
| 100 to 500 | COCCNC(=O)CCCn1c(=O)c2cccn2c2ccc(F)cc21 [Example 1-31] |
| < 100 | COc1ncccc1NC(=O)CCn1c(=O)c2cnn(C)c2c2ccc(F)cc21 [Example 9-1] |
| < 100 | CC1CCC(N(C)C(=O)CCn2c(=O)c3cccn3c3ccc(F)cc32)CC1 (stereo not shown) [Example 3-45] |
| < 100 | Cn1ncc2c(=O)n(CCNC(=O)c3ccc(F)cc3F)c3cc(F)ccc3c21 [Example 16-1] |
| < 100 | O=C(CCCn1c(=O)c2cccn2c2ccc(F)cc21)Nc1cccc(Cl)c1 [Example 1-22] |
| < 100 | COc1ccc(NC(=O)CCCn2c(=O)c3cccn3c3cccnc32)cc1 [Example 4-7] |
| < 100 | O=C(CCCn1c(=O)c2cccn2c2ccc(F)cc21)N1CCc2ccccc2C1 [Example 1-8] |
| < 100 | COc1ccc(NC(=O)CCCn2c(=O)c3cccn3c3cnccc32)cc1 [Example 6-2] |
| < 100 | O=C(CCCn1c(=O)c2cccn2c2ccc(F)cc21)N1CCC(C(F)(F)F)CC1 [Example 1-37] |
| < 100 | Cc1cccc(NC(=O)CCCn2c(=O)c3cccn3c3ccc(F)cc32)c1 [Example 1-11] |
| < 100 | COc1ccc(NC(=O)CCn2c(=O)c3cc(F)cn3c3ccc(F)cc32)nc1 [Example 3-66] |
| < 100 | O=C(CCn1c(=O)c2ccnn2c2ccc(F)cc21)N1CCc2ccncc21 [Example 8-13] |
| < 100 | Cc1ccccc1NC(=O)CCCn1c(=O)c2cccn2c2ccc(F)cc21 [Example 1-21] |
| < 100 | Cn1ncc2c(=O)n(CCC(=O)N3CCc4ncccc43)c3cc(F)ccc3c21 [Example 9-5] |
| < 100 | O=C(CCn1c(=O)c2ccnn2c2ccc(F)cc21)N1Cc2cccnc2C1 [Example 8-8] |
| < 100 | O=C(CCCn1c(=O)c2cccn2c2ccc(F)cc21)N1Cc2ccccc2C1 [Example 1-13] |

— patent publication US11918662B2, “Heterocyclic compounds and imaging agents for imaging huntingtin protein” (CHDI Foundation, Inc., priority 2020, dated 2024)
